Source: PubChem BioAssay (NCI)
Where “and” joins values, the source holds several entries; their conditions need not be identical. Equal values may be shown once.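 Step 1: Grow cells in 96-well plates. Step 2: Expose to compound for 48 hours at 5 concentrations. Step 3: Interpolate endpoints linearly; if unreached, use highest concentration. Here, GI50 denotes the concentration required for 50% inhibition of growth. Definition used: TGI = concentration required for complete inhibition of growth.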

Assays:
Test in all cases: NCI-60 cell line screen, 48 h
ACHN renal = test system: ACHN renal
HCT-15 colon = test system: HCT-15 colon
LOX IMVI melanoma = test system: LOX IMVI melanoma
MDA-MB-435 = test system: MDA-MB-435
OVCAR-4 ovarian = test system: OVCAR-4 ovarian
SK-MEL-28 melanoma = test system: SK-MEL-28 melanoma
SNB-75 CNS = test system: SNB-75 CNS
SW-620 colon = test system: SW-620 colon
TK-10 renal = test system: TK-10 renal
U251 CNS = test system: U251 CNS

Structure (SMILES) | GI50 (ACHN renal) | TGI (ACHN renal) | GI50 (HCT-15 colon) | TGI (HCT-15 colon) | GI50 (LOX IMVI melanoma) | TGI (LOX IMVI melanoma) | GI50 (MDA-MB-435) | TGI (MDA-MB-435) | GI50 (OVCAR-4 ovarian) | TGI (OVCAR-4 ovarian) | GI50 (SK-MEL-28 melanoma) | TGI (SK-MEL-28 melanoma) | GI50 (SNB-75 CNS) | TGI (SNB-75 CNS) | GI50 (SW-620 colon) | TGI (SW-620 colon) | GI50 (TK-10 renal) | TGI (TK-10 renal) | GI50 (U251 CNS) | TGI (U251 CNS)
O=C(c1ccccc1)c1c(NCC(O)CN2CCOCC2)n(Cc2ccccc2)c(=O)n(Cc2ccccc2)c1=O (stereo not drawn) | 40.5 µM | > 100 µM | 34.4 µM | > 100 µM | 38.6 µM | > 100 µM | 35.2 µM | > 100 µM | > 45.4 µM | > 95.3 µM | > 64.1 µM | > 100 µM | > 36.8 µM | > 81.7 µM | 52.9 µM | > 100 µM | 30.2 µM | > 100 µM | 29.2 µM | > 100 µM
Cc1cc(O)c(C2=NN(c3ccc(S(N)(=O)=O)cc3)C(c3ccc(Cl)cc3)C2)c(C)c1Cl (stereo not drawn) | 3.7 µM | 14.4 µM | 5.48 µM | 20.8 µM | 2.34 µM | 6.98 µM | 3.57 µM | 14.8 µM | 7.69 µM | 21.2 µM | 11.7 µM | 23.9 µM | 10.9 µM | 23.7 µM | 3.72 µM | 15.2 µM | 4.48 µM | 18.8 µM | 3.34 µM | 13.5 µM
c1cncc(CNCc2cccnc2)c1 | – | > 100 µM | – | > 100 µM | – | > 100 µM | – | > 100 µM | – | > 100 µM | – | > 100 µM | – | > 100 µM | – | > 100 µM | – | > 100 µM | – | > 100 µM
CN(C)c1nc2ccccc2c2c1c1c(n2Cc2ccccc2)-c2ccccc2C1=O | > 100 µM | > 100 µM | > 100 µM | > 100 µM | > 100 µM | > 100 µM | > 100 µM | > 100 µM | 31.3 µM | > 100 µM | > 100 µM | > 100 µM | 54.2 µM | > 100 µM | > 100 µM | > 100 µM | > 100 µM | > 100 µM | > 100 µM | > 100 µM
O=C(Oc1ccc(CO[N+](=O)[O-])cc1)c1ccccc1 | 0.113 µM | 0.236 µM | 0.172 µM | 0.358 µM | 0.163 µM | 0.316 µM | 0.157 µM | 0.307 µM | 0.18 µM | 0.381 µM | 0.171 µM | 0.332 µM | 0.158 µM | 0.333 µM | 0.103 µM | 0.251 µM | 0.173 µM | 0.334 µM | 0.145 µM | 0.276 µM
CC(C)=CCC(OC(=O)C=C(C)C)C1=CC(=O)c2c(O)ccc(O)c2C1=O (stereo not drawn) | 0.605 µM | 2.53 µM | 1.07 µM | 3.22 µM and 1.13 µM | – | 0.894 µM and 3.07 µM | 2.09 µM | 4.77 µM | 1.73 µM | 4.16 µM and 1.48 µM | 1.01 µM | 2.52 µM and 2.67 µM | 3.87 µM | 16.3 µM and 13.7 µM | 0.327 µM | 1.27 µM and 0.867 µM | 0.738 µM | 2.41 µM | 1.71 µM | 3.61 µM and 9.1 µM
CSCCCNC(=O)c1ccc2c(c1)/C(=C/c1[nH]c(C)cc1C)C(=O)N2 | 0.299 µM | > 100 µM | 0.44 µM | > 100 µM | 1.02 µM | > 100 µM | 0.856 µM | > 100 µM | – | – | 1.65 µM | > 100 µM | – | – | 0.846 µM | > 100 µM | 6.44 µM | > 100 µM | 0.675 µM | > 100 µM
Cc1nc(Nc2ccccn2)sc1C(=O)/C=C/c1ccc(Cl)cc1 | 0.559 µM | 31 µM | 0.355 µM | > 100 µM | 0.458 µM | > 40.8 µM | 0.201 µM | 0.515 µM | 0.778 µM | > 100 µM | 2.19 µM | > 100 µM | 0.296 µM | 24.7 µM | 0.445 µM | > 100 µM | 1.09 µM | 24.4 µM | 0.37 µM | > 47.3 µM
C=C1CCC2(C#N)[C@H]3[C@H](CC[C@@H]2C)[C@@H](C)C[C@@H](CC(C)(C)NC(=O)CN2CCC2=O)[C@H]13 (stereo partly drawn) | 11.3 µM | 51.4 µM | 3.68 µM | 26.8 µM | 6.17 µM | 19.7 µM | 6.19 µM | 23.8 µM | 8.9 µM | > 100 µM | 10.2 µM | 23 µM | 1.57 µM | 10.2 µM | 11.3 µM | 32.3 µM | 16.2 µM | 43.3 µM | 4.27 µM | 16.6 µM
C1=C2CCCC3=Cc4ccccc4OC23Oc2ccccc21 | 5.06 µM | > 100 µM | 3.68 µM | > 100 µM | 3.88 µM | 28 µM | 1.64 µM | 4.68 µM | 6.12 µM | > 100 µM | 5.22 µM | > 100 µM | 1.64 µM | 5.84 µM | 3.36 µM | 53.6 µM | 9.87 µM | > 100 µM | 4.54 µM | > 100 µM
O=P1(S)OC[C@H]2O[C@@H]3[C@H](F)[C@@H]2OP(O)(=S)OC[C@H]2O[C@H]([C@H](F)[C@@H]2O1)n1cnc2c(ncnc21)NC/C=C/CNc1ncnc2c1ncn23 (stereo partly drawn) | > 100 µM | > 100 µM | > 100 µM | > 100 µM | > 100 µM | > 100 µM | > 100 µM | > 100 µM | 5.36 µM | > 100 µM | > 100 µM | > 100 µM | > 79.9 µM | > 100 µM | > 100 µM | > 100 µM | > 100 µM | > 100 µM | > 100 µM | > 100 µM
Cc1ccc(S(=O)(=O)c2nc(-c3ccccc3)oc2S(C)=O)cc1 (stereo not drawn) | 1.52 µM | 2.88 µM | – | – | 1.4 µM | 2.81 µM | 1.53 µM | 3.04 µM | 1.91 µM | 3.65 µM | 1.95 µM | 3.5 µM | 2.69 µM | 9.55 µM | 1.47 µM | 3.48 µM | 1.45 µM | 2.79 µM | 1.7 µM | 3.17 µM
CC1=Nc2ccccc2/C1=C\c1c(C)[nH]c2ccccc12 | – | 29.5 µM | – | 31.5 µM | – | 62.4 µM | – | 26.7 µM | – | 47.1 µM | – | 37.9 µM | – | 71.5 µM | – | 28.5 µM | – | 32.2 µM | – | 33.3 µM
CCOc1c(N=Nc2ccccc2Cl)c(-c2ccccc2)nn1C(=S)S | – | > 100 µM | – | > 100 µM | – | 46.1 µM | – | > 100 µM | – | > 100 µM | – | > 100 µM | – | > 100 µM | – | > 100 µM | – | > 100 µM | – | > 100 µM
